According to ChEMBL document CHEMBL1201862, “PubChem BioAssay data set” (2004):
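All cell lines were grown in 96-well plates and treated with compound for 48 hours. The concentration for 50% growth inhibition is given as GI50.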 The source made the active and inactive calls. No stated cut-off is given here; in the data, active = GI50 up to about 1.1 µM and inactive = higher.

Columns and labels:
Test in all cases: NCI-60 cell line screen, 48 h
[1] = test system: IGROV-1
[2] = test system: OVCAR-4
[3] = test system: HCT-15
[4] = test system: HT-29
[5] = test system: TK-10
[6] = test system: EKVX
[7] = test system: UACC-62
[8] = test system: SK-MEL-5
[9] = test system: SK-MEL-28
[10] = test system: HL-60
[11] = test system: CAKI-1
[12] = test system: A549
[13] = test system: NCI-H226
[14] = test system: NCI-H460
[15] = test system: OVCAR-8
[16] = test system: RXF 393
[17] = test system: SN12C
[18] = test system: SR

Structure (SMILES)	GI50 [1]	GI50 [2]	GI50 [3]	GI50 [4]	GI50 [5]	GI50 [6]	GI50 [7]	GI50 [8]	GI50 [9]	GI50 [10]	GI50 [11]	GI50 [12]	GI50 [13]	GI50 [14]	GI50 [15]	GI50 [16]	GI50 [17]	GI50 [18]
C=C1CC2(CCS(=O)(=O)c3ccccc32)OC1=O (stereo not drawn)	16.6 µM (inactive)	13.7 µM (inactive)	11.9 µM	12.2 µM (inactive)	12.9 µM (inactive)	18 µM (inactive)	15.9 µM (inactive)	12.4 µM (inactive)	13.3 µM (inactive)	2.96 µM (inactive)	1.48 µM (inactive)	17.9 µM (inactive)	10.9 µM (inactive)	18.5 µM (inactive)	–	–	–	–
CN1N=CSC12C(=O)N(c1ccccc1)C(=O)N2c1ccccc1 (stereo not drawn)	> 100 µM (inactive)	82.2 µM (inactive)	> 100 µM	> 100 µM (inactive)	> 100 µM (inactive)	> 100 µM (inactive)	> 100 µM (inactive)	> 100 µM (inactive)	> 100 µM (inactive)	> 100 µM (inactive)	> 100 µM (inactive)	> 100 µM (inactive)	–	> 100 µM (inactive)	> 100 µM (inactive)	> 100 µM (inactive)	> 100 µM (inactive)	–
FC(F)(F)c1nc(-c2ccccc2)oc1Sc1nnc(Sc2oc(-c3ccccc3)nc2C(F)(F)F)s1	24.2 µM (inactive)	14.7 µM (inactive)	25.3 µM	> 100 µM (inactive)	> 55.8 µM (inactive)	> 47.2 µM (inactive)	35.2 µM (inactive)	14.4 µM (inactive)	> 55.3 µM (inactive)	14.2 µM (inactive)	30.1 µM (inactive)	> 100 µM (inactive)	–	> 100 µM (inactive)	22.7 µM (inactive)	21.1 µM (inactive)	39.4 µM (inactive)	18.5 µM (inactive)
Cc1ccc2c(c1)NC(=O)C(N=[N+]=[N-])(c1ccccc1)C2=O (stereo not drawn)	32.8 µM (inactive)	44.2 µM (inactive)	21.5 µM	20 µM (inactive)	34.4 µM (inactive)	30.3 µM (inactive)	22.2 µM (inactive)	23.1 µM (inactive)	45.1 µM (inactive)	16.4 µM (inactive)	24.4 µM (inactive)	50.5 µM (inactive)	–	23.6 µM (inactive)	27.2 µM (inactive)	–	21.1 µM (inactive)	20.7 µM (inactive)
COCCOc1cc(C)cc(/C=C(C)/C=C/C2=C(C)CCCC2(C)C)n1	> 100 µM (inactive)	59.2 µM (inactive)	–	28.6 µM (inactive)	> 100 µM (inactive)	38.2 µM (inactive)	> 100 µM (inactive)	17.3 µM (inactive)	> 100 µM (inactive)	–	> 100 µM (inactive)	51.9 µM (inactive)	32.1 µM (inactive)	88.7 µM (inactive)	60.7 µM (inactive)	39.7 µM (inactive)	> 100 µM (inactive)	16.5 µM (inactive)
C[C@]12CCC(=O)C=C1CC[C@@H]1C2CC[C@]2(C)Nc3c(cnn3-c3ccccc3)CC12 (stereo partly drawn)	> 100 µM (inactive)	> 100 µM (inactive)	> 100 µM	> 100 µM (inactive)	> 100 µM (inactive)	> 100 µM (inactive)	> 100 µM (inactive)	> 100 µM (inactive)	> 100 µM (inactive)	> 100 µM (inactive)	> 100 µM (inactive)	> 100 µM (inactive)	> 100 µM (inactive)	> 100 µM (inactive)	> 100 µM (inactive)	> 100 µM (inactive)	–	–
COc1c(C)c(O)c2c(c1C)OC(c1ccccc1)CC2=O (stereo not drawn)	98.9 µM (inactive)	67.9 µM (inactive)	30.5 µM	43.2 µM (inactive)	42.9 µM (inactive)	65.2 µM (inactive)	53 µM (inactive)	> 10 µM (inactive)	50.4 µM (inactive)	28.3 µM (inactive)	41.2 µM (inactive)	52.5 µM (inactive)	38.9 µM (inactive)	36.8 µM (inactive)	62.4 µM (inactive)	–	52.5 µM (inactive)	23.5 µM (inactive)
CC1=C2CCCC2C/C(=N/Nc2ccc([N+](=O)[O-])cc2[N+](=O)[O-])CC1 (stereo not drawn)	> 100 µM (inactive)	> 100 µM (inactive)	> 100 µM	> 100 µM (inactive)	> 100 µM (inactive)	–	> 100 µM (inactive)	> 100 µM (inactive)	> 100 µM (inactive)	11.1 µM (inactive)	> 100 µM (inactive)	> 100 µM (inactive)	> 100 µM (inactive)	> 100 µM (inactive)	> 100 µM (inactive)	–	> 100 µM (inactive)	> 100 µM (inactive)
C=C[C@H]1C=Cc2c(OC)cccc2[C@@H]1COP1(=S)NC(C)C(c2ccccc2)O1 (stereo partly drawn)	> 100 µM (inactive)	> 100 µM (inactive)	–	79.6 µM (inactive)	> 100 µM (inactive)	> 100 µM (inactive)	84.5 µM (inactive)	44.2 µM (inactive)	> 100 µM (inactive)	18.9 µM (inactive)	–	83.2 µM (inactive)	67.5 µM (inactive)	> 100 µM (inactive)	81.5 µM (inactive)	51.1 µM (inactive)	> 100 µM (inactive)	–
CCOc1ccc(NC(=O)CC2C(=O)Nc3ccccc3S2(=O)=O)cc1 (stereo not drawn)	> 100 µM (inactive)	> 100 µM (inactive)	> 100 µM	> 100 µM (inactive)	> 100 µM (inactive)	> 100 µM (inactive)	–	–	> 100 µM (inactive)	> 100 µM (inactive)	–	> 100 µM (inactive)	34.3 µM (inactive)	> 100 µM (inactive)	39.4 µM (inactive)	64.1 µM (inactive)	53.1 µM (inactive)	> 100 µM (inactive)
C/C(=N/NC(=O)C[n+]1ccccc1)C(CN(CC(C)C)CC(C)C)C(=O)Nc1ccc(C)cc1C (stereo not drawn)	> 100 µM (inactive)	> 100 µM (inactive)	–	> 100 µM (inactive)	78.2 µM (inactive)	45.1 µM (inactive)	> 100 µM (inactive)	> 100 µM (inactive)	> 100 µM (inactive)	59.6 µM (inactive)	–	> 100 µM (inactive)	–	> 100 µM (inactive)	> 100 µM (inactive)	61.2 µM (inactive)	51.4 µM (inactive)	> 100 µM (inactive)
O=C1c2cccc3cccc(c23)C(=O)N1CCCN1CCN(CCCN2C(=O)c3cccc4cccc(c34)C2=O)CC1	> 100 µM (inactive)	> 100 µM (inactive)	> 100 µM	> 100 µM (inactive)	> 100 µM (inactive)	> 100 µM (inactive)	> 100 µM (inactive)	> 100 µM (inactive)	–	> 100 µM (inactive)	> 100 µM (inactive)	> 100 µM (inactive)	> 100 µM (inactive)	> 100 µM (inactive)	> 100 µM (inactive)	> 100 µM (inactive)	> 100 µM (inactive)	–
COc1ccc(/C=C/C(=O)c2sc(NC(=S)NC(=O)c3ccccc3F)nc2C)cc1OC	> 100 µM (inactive)	–	> 100 µM	–	> 100 µM (inactive)	> 100 µM (inactive)	85.9 µM (inactive)	88.3 µM (inactive)	66.7 µM (inactive)	46.2 µM (inactive)	> 100 µM (inactive)	> 100 µM (inactive)	–	> 100 µM (inactive)	> 100 µM (inactive)	36.5 µM (inactive)	> 100 µM (inactive)	–
O=C(Nc1ccccc1[N+](=O)[O-])c1ccccc1	> 100 µM (inactive)	82.6 µM (inactive)	> 100 µM	> 100 µM (inactive)	> 100 µM (inactive)	97.7 µM (inactive)	> 100 µM (inactive)	> 100 µM (inactive)	> 100 µM (inactive)	> 100 µM (inactive)	> 100 µM (inactive)	> 100 µM (inactive)	83.8 µM (inactive)	> 100 µM (inactive)	> 100 µM (inactive)	37.3 µM (inactive)	> 100 µM (inactive)	–
COc1ccc(N(C)CN(C)c2nc(N(C)C)nc(N(C)C)n2)cc1	> 100 µM (inactive)	> 100 µM (inactive)	> 100 µM	> 100 µM (inactive)	> 100 µM (inactive)	> 100 µM (inactive)	> 100 µM (inactive)	> 100 µM (inactive)	> 100 µM (inactive)	> 100 µM (inactive)	> 100 µM (inactive)	> 100 µM (inactive)	–	> 100 µM (inactive)	> 100 µM (inactive)	–	> 100 µM (inactive)	> 100 µM (inactive)
COc1nc(C(=O)O)c(Cl)c(OC)c1Cl	> 100 µM (inactive)	> 100 µM (inactive)	–	> 100 µM (inactive)	> 100 µM (inactive)	> 100 µM (inactive)	> 100 µM (inactive)	> 100 µM (inactive)	> 100 µM (inactive)	> 100 µM (inactive)	> 100 µM (inactive)	> 100 µM (inactive)	–	> 100 µM (inactive)	> 100 µM (inactive)	> 100 µM (inactive)	> 100 µM (inactive)	> 100 µM (inactive)
COC(=O)[C@]1(C)CCC[C@@]2(C)C1CCC1=C[C@@]3(C(C)C)CC[C@]12OO3 (stereo partly drawn)	33.2 µM (inactive)	42.3 µM (inactive)	31.9 µM	15.2 µM (inactive)	> 100 µM (inactive)	36.6 µM (inactive)	25.3 µM (inactive)	15.7 µM (inactive)	–	19.1 µM (inactive)	> 10 µM (inactive)	30.6 µM (inactive)	26.3 µM (inactive)	21.1 µM (inactive)	35.8 µM (inactive)	–	31.3 µM (inactive)	19.4 µM (inactive)
